Data on 13 molecules can be found in ChEMBL document CHEMBL1287670, “Discovery and synthesis of 6,7,8,9-tetrahydro-5H-pyrimido-[4,5-d]azepines as novel TRPV1 antagonists” (Bioorg Med Chem Lett, 2010).

Data set [1] concerns the target T1, Transient receptor potential cation channel subfamily V member 1 (Homo sapiens, UniProt Q8NER1). The data set is described as follows: Antagonist activity at human recombinant TRPV1 assessed as inhibition of capsaicin-induced in intracellular calcium levels by cell-based FLIPR assay. In kind it is functional. For orientation: Calcium assays in cells follow changes in intracellular calcium, usually with a dye or a luminescent sensor.

Data set [2] can be described thus: Aqueous equilibrium solubility of the compound in fasted-state simulated intestinal fluid at pH 6.8 by HPLC. In kind it is physicochemical.
Data set [3] can be described thus: Clearance in fasted Sprague-Dawley rat at 1 mg/kg, iv or 5 mg/kg, po. In kind it is ADME, organism-based. The conditions noted are these: in vivo.
Data set [4] is described as follows: Cmax in fasted Sprague-Dawley rat at 1 mg/kg, iv or 5 mg/kg, po. In kind it is ADME, organism-based. As to conditions: in vivo.
The nature of data set [5]: AUC (infinity) in fasted Sprague-Dawley rat at 5 mg/kg, po. In kind it is ADME, organism-based. Further details: time infinity, dose 5 mg/kg, route oral. The conditions noted are these: plasma.
Data set [6] deals with Rattus norvegicus. Nature of the data set: Antihyperalgesic activity against carrageenan-induced thermal hyperalgesia in rat assessed as paw withdrawal latency at 30 mg/kg, po administered 1 hr before carrageenan challenge. Set-up: dose 30 mg/kg. In kind it is functional, organism-based.
Data set [7] is described as follows: AUC (infinity) in fasted Sprague-Dawley rat at 1 mg/kg, iv. Further details: time infinity, dose 1 mg/kg, route intravenous. As to conditions: plasma. In kind it is ADME, organism-based.
Data set [8] is described as follows: Aqueous equilibrium solubility of the compound at pH 2 by HPLC. In kind it is physicochemical. The conditions noted are these: aqueous medium.
A short description of data set [9]: Bioavailability in fasted Sprague-Dawley rat at 1 mg/kg, iv or 5 mg/kg, po. In kind it is ADME, organism-based. The conditions noted are these: in vivo.
Data set [10] in a line: Volume of distribution at steady state in fasted Sprague-Dawley rat at 1 mg/kg, iv or 5 mg/kg, po. In kind it is ADME, organism-based. As to conditions: in vivo, read-out: Vdss.
Data set [11] in a line: Half life in fasted Sprague-Dawley rat at 1 mg/kg, iv or 5 mg/kg, po. In kind it is ADME, organism-based. As to conditions: in vivo.
The target of data set [12] is Transient receptor potential cation channel subfamily V member 1 (Rattus norvegicus, UniProt O35433). The data set is described as follows: Binding affinity to rat TRPV1.
The target in data set [13] is T1, Transient receptor potential cation channel subfamily V member 1. Nature of the data set: Binding affinity to human recombinant TRPV1.

As a reminder, the pIC50 is −log10 of the IC50, conventionally taken in molar units. Broadly, the thermodynamic solubility is solubility found after equilibrating the solid with the medium. The term Cmax denotes the peak of the concentration-time curve. A word on the AUC(0-inf): it is the area under the concentration-time curve extrapolated to infinity. Read a high AUC(0-inf) as more exposure. One may read the bioavailability as dose-corrected exposure relative to a reference, in per cent. Broadly, the half-life is how long it takes for the measured level to halve. Read a high half-life as slow decline. In general, pKi refers to the negative decadic logarithm of the Ki, by convention in mol/L.

SMILES strings stand for the structures. pIC50, pKi: −log10 of the molar value. ≈ marks a conversion by molar mass, not a printed value. Calls of active or inactive are those of the source. The calls are words filed in the database; no cut-off is given here.

T1 sequence (Q8NER1 whole entry): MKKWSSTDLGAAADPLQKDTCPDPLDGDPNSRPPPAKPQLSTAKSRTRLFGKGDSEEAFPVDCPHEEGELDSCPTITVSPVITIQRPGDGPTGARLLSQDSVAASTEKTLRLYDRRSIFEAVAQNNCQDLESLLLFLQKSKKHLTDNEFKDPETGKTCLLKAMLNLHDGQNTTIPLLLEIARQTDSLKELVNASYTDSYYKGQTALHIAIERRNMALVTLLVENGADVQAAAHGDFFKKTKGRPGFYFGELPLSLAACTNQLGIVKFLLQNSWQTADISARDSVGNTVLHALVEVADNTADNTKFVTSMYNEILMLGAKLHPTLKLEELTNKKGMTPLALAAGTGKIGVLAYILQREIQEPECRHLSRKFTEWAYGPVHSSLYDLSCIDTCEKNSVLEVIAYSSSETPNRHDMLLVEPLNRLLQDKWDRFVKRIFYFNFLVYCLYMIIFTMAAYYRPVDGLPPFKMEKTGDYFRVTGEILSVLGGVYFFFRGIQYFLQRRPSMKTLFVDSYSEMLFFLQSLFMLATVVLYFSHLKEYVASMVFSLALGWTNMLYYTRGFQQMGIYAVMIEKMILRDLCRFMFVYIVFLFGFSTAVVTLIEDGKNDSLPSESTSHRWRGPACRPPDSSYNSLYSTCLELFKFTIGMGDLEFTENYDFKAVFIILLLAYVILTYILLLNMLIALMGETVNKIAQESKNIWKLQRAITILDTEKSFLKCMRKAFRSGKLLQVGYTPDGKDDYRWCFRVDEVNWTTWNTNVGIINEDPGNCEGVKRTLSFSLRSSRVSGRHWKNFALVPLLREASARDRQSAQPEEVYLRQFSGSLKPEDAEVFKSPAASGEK
Sequence of Transient receptor potential cation channel subfamily V member 1 (Rattus norvegicus, UniProt O35433) (O35433 whole entry): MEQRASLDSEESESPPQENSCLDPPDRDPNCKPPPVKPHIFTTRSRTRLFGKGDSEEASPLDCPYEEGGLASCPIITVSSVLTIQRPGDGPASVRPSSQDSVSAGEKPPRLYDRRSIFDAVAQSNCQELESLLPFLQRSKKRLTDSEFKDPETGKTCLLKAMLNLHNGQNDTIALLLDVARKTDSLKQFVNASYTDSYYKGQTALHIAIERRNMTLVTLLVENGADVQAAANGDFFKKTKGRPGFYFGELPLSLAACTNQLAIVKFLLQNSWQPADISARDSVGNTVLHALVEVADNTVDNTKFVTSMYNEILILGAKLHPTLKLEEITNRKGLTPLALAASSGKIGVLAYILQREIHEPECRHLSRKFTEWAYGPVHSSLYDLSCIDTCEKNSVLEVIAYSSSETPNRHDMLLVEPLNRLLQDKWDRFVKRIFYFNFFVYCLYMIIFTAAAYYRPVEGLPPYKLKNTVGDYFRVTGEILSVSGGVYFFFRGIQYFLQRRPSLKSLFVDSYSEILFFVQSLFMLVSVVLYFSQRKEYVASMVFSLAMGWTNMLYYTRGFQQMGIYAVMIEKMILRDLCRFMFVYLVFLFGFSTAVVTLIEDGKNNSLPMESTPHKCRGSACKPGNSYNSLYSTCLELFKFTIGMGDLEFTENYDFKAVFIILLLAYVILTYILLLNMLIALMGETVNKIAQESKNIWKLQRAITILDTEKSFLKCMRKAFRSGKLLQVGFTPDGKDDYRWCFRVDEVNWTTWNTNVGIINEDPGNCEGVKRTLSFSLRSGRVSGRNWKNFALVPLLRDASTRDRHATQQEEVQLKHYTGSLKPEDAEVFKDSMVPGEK

For `Cc1nc2c(c(Nc3ccc(C(C)(C)C)cc3)n1)CCN(c1ncccc1C(F)(F)F)C2`, the negative logarithm of the IC50 (pIC50) in [1] was 7.10.

As for `O=C(O)c1cnc(N2CCc3nc(N4CCCCC4)nc(Nc4ccc(C(F)(F)F)cc4)c3CC2)c(Cl)c1`, the pIC50 in [1] is 6.34. In addition, the solubility (thermodynamic) in [2] is 218 µg/mL (≈ 399 µM).

Turning to `CC(C)(C)c1ccc(Nc2ncnc3c2CN(c2ncccc2C(F)(F)F)CC3)cc1`, the pIC50 in data set [1] was < 5.00.

As for `FC(F)(F)c1cccc(Nc2ncnc3c2CCN(c2ncccc2C(F)(F)F)C3)c1`, the pIC50 in data set [1] is 5.84.

On to `CC(C)(C)c1ccccc1Nc1ncnc2c1CCN(c1ncccc1C(F)(F)F)C2`, for which the pIC50 in data set [1] was < 4.70.

As to `CC(C)(C)c1ccc(Nc2ncnc3c2CCCN(c2ncccc2C(F)(F)F)C3)cc1`, the pIC50 in data set [1] is 5.69.

For the molecule `CC(C)c1nc2c(c(Nc3ccc(C(C)(C)C)cc3)n1)CCN(c1ncccc1C(F)(F)F)C2`, in data set [1], the pIC50 was 7.74.

Regarding `CC(C)(C)c1ccc(Nc2ncnc3c2CCN(c2ncccc2C(F)(F)F)C3)cc1`, the pIC50 in data set [1] was 8.05.

On to `COC(=O)c1cnc(N2CCc3nc(N4CCOCC4)nc(Nc4ccc(C(F)(F)F)cc4)c3CC2)c(Cl)c1`, for which the pIC50 in data set [1] is 6.75.

As for `COc1nc(Nc2nc(C(C)C)nc3c2CCN(c2ncccc2C(F)(F)F)CC3)ccc1C(F)(F)F`, the pIC50 in data set [1] is 5.61.

In the case of `CC(C)(C)c1cccc(Nc2ncnc3c2CCN(c2ncccc2C(F)(F)F)C3)c1`, the pIC50 in data set [1] was 6.28.

As for `FC(F)(F)c1ccc(Nc2nc(N3CCOCC3)nc3c2CCN(c2ncccc2C(F)(F)F)CC3)cc1`, the clearance in data set [3] is 3.1 L/h/kg. Further, in [4], the concentration peaked (Cmax) at 0.16 µM. Moreover, the AUC(0-inf) in data set [5] was determined as 0.236 µg·h/mL; in data set [7] it was 0.322 µg·h/mL. In data set [6], the result was Active. The solubility (thermodynamic) was 5 µg/mL (≈ 9.29 µM) in data set [8] and 0.5 µg/mL (≈ 0.929 µM) in data set [2]. In data set [9], this molecule had a bioavailability of 14%. For the same molecule, the Vd in [10] stood at 4.7 L/kg. The same molecule gave a half-life in data set [11] of 1.1 h.

`C=C(C)C12C[C@@H](C)[C@@]34O[C@](Cc5ccccc5)(O[C@@H]1[C@@H]3C=C(COC(=O)Cc1ccc(O)c(OC)c1)C[C@]1(O)C(=O)C(C)=C[C@@H]41)O2` (single isomer, unassigned) [RESINIFERATOXIN] had a pIC50 in data set [12] of 6.74. Besides, the pKi in data set [13] was 7.85.
